Patent publication US8404866B2, “Substituted heterocyclic mercaptosulfonamide metalloprotease inhibitors” (Florida State University Research Foundation, priority 2008, dated 2013)
Where a name gives a salt, the structure may show the parent alone.

Assays:
blood-brain barrier = details: ischemia reperfusion model in the rat; cited from earlier work
EAN animal model = details: cited from earlier work
brain = details: following hemorrhage; cited from earlier work
kidneys = details: given prior to disease induction; cited from earlier work
[1] = test system: experimental autoimmune uveitis; details: cited from earlier work
[2] = biological target: T1, MMP-1 (HFC; human fibroblast collagenase) (Homo sapiens, UniProt P03956); test: Enzyme kinetic assay, inhibition of MMP-1; assay type: biochemical; details: 25° C., pH 7.5, substrate 1 μM; read-out: IC50 (value without parentheses), HFC MMP-1
T1 sequence (P03956 100-469): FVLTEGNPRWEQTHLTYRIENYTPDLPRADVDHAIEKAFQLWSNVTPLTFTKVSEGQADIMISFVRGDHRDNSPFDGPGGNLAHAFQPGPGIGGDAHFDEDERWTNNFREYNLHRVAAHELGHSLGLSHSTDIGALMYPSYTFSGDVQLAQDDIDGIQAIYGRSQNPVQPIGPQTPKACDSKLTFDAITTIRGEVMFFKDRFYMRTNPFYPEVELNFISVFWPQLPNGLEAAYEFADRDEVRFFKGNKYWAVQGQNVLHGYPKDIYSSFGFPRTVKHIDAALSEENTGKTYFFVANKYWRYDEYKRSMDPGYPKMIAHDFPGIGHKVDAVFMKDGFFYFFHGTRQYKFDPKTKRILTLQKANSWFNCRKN
From the text: (§1) The following protocol was used to obtain the data found in the following table. Materials: The fluorescent peptide substrates for matrix metalloproteinases (MMPs) used were purchased from Bachem Chem. Co. The metal salts and Brij-35 were purchased from Fisher Scientific Inc. All other chemicals were purchased from Sigma-Aldrich Chem. Co. The sources and biochemical characterizations of multiple MMPs, including MMP-1/human fibroblast collagenase (HFC), MMP-2/human fibroblast gelatinase (HFG), MMP-8/human neutrophil collagenase (HNC), and MMP-9/human neutrophil gelatinase (HNG), MMP-7/human matrilysin (MLN), MMP-3/human fibroblast stromelysin-1 (HFS), human recombinant catalytic domain of membrane-type 1 matrix metalloproteinase (cdMT1-MMP), catalytic domain of MMP-12/metalloelastase (cdMET), and MMP-26/human endometase (EDM) were described previously (Sang, Q. X., Birkedal-Hansen, H., and Van Wart, H. E. Proteolytic and non-proteolytic activation of human neutrophil progelatinase B. Biochim. Biophys. Acta. 1995; 1251, 99-108; Sang, Q. A., Bodden, M. K., and Windsor, L. J. Activation of human progelatinase A by collagenase and matrilysin: activation of procollagenase by matrilysin. J. Protein. Chem. 1996; 15, 243-253; Li, H., Bauzon, D. E., Xu, X., Tschesche, H., Cao, J., and Sang, Q.-X. A. Immunological characterization of cell-surface and soluble forms of membrane type 1 matrix metalloproteinase in human breast cancer cells and in fibroblasts. Molec. Carcinog. 1998; 22, 84-94; Park, H. I., Ni, J., Gerkema, F. E., Liu, D., Belozerov, V. E., and Sang, Q.-X. A. Identification and characterization of human endometase (Matrix metalloproteinase-26) from endometrial tumor. J. Biol. Chem., 2000; 275, 20540-20544). The active concentrations of MMPs were determined by titration with GM6001, a tight-binding MMP inhibitor, as described previously (Park, H. I., Turk, B. E., Gerkema, F. E., Cantley, L. C., and Sang, Q.-X. A. Peptide substrate specificities and protein cleavage sites of human endometase/matrilysin-2/matrix metalloproteinase-26. J. Biol. Chem. 2002; 277, 35168-35175).
(§2) The active inhibitor concentrations were estimated by titrating the mercapto group with 5,5′-dithiobis(2-nitrobenzoic acid) (DTNB; Ellman's reagent) as described previously (Ellman, G. L. A colorimetric method for determining low concentrations of mercaptans. Arch. Biochem. Biophys. 1958; 74, 443-450; Ellman, G. L. Tissue sulfhydryl groups. Arch. Biochem. Biophys. 1959; 82, 70-77; Riddles, P. W., Blakeley, R. L., and Zerner, B. Ellman's reagent: 5,5′-dithiobis(2-nitrobenzoic acid)—a reexamination. Anal. Biochem. 1979; 94, 75-81). Briefly, the reaction of DTNB with the mercapto group produces 2-nitro-5-thiobenzoic acid (TNB). The concentration of TNB is then measured by monitoring the absorbance at 412 nm. Cysteine was used to generate the standard curve with a molar extinction coefficient of 14,000±500 M^−1 cm^−1, which is close to the value in the literature (Riddles, P. W., Blakeley, R. L., and Zerner, B. Ellman's reagent: 5,5′-dithiobis(2-nitrobenzoic acid)—a reexamination. Anal. Biochem. 1979; 94, 75-81).
(§3) The substrate Mca-PLGLDpaAR-NH2 was used to measure inhibition constants (Knight, C. G., Willenbrock. F., and Murphy, G. A novel coumarin-labelled peptide for sensitive continuous assays of the matrix metalloproteinases. FEBS Lett. 1992; 296, 263-266). Enzymatic assays were performed at 25° C. in 50 mM HEPES buffer at pH 7.5 in the presence of 10 mM CaCl2, 0.2 M NaCl, and 0.01% or 0.05% Brij-35 with substrate concentrations of 1 μM. The release of product was monitored by measuring fluorescence (excitation and emission wavelengths of 328 nm and 393 nm, respectively) with a Perkin Elmer Luminescence Spectrophotometer LS 50B connected to a temperature controlled water bath. All stock solutions of inhibitors were in dimethyl sulfoxide. […]

[3] = biological target: MMP-9 (HNG; human neutrophil gelatinase) (Homo sapiens, UniProt P14780); test: Enzyme kinetic assay, inhibition of MMP-9; assay type: biochemical; details: read-out: Ki (value in parentheses), HNG MMP-9
From the text: as §1, §2, §3

[4] = biological target: MMP-3 (HFS; human fibroblast stromelysin-1) (Homo sapiens, UniProt P08254); test: Enzyme kinetic assay, inhibition of MMP-3; assay type: biochemical; details: read-out: Ki (value in parentheses), HFS MMP-3
From the text: as §1, §2, §3

[5] = biological target: T2, MMP-2 (HFG; human fibroblast gelatinase) (Homo sapiens, UniProt P08253); test: Enzyme kinetic assay, inhibition of MMP-2; assay type: biochemical; details: read-out: Ki (value in parentheses), HFG MMP-2
T2 sequence (P08253 110-660): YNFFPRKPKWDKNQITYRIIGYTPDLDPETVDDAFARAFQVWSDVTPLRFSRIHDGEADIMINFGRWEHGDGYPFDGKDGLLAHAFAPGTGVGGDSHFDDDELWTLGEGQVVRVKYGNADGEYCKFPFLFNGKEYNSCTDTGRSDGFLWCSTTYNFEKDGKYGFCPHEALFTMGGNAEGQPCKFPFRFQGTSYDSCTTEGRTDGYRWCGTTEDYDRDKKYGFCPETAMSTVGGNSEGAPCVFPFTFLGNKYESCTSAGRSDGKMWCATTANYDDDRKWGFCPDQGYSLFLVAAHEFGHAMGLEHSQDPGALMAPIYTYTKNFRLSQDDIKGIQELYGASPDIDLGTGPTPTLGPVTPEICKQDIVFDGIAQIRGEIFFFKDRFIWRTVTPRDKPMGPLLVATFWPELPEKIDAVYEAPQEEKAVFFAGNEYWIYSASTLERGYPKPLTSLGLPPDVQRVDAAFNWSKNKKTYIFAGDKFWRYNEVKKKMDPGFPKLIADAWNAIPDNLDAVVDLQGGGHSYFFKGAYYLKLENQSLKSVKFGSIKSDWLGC
From the text: as §1, §2, §3

stented arteries = details: compared to placebo; cited from earlier work
EAE animal model = details: administered daily from disease induction or from onset of clinical signs; cited from earlier work
insulin resistance = details: mouse model of insulin resistance; cited from earlier work
lethal acute GVHD = details: mouse model of lethal acute GVHD; cited from earlier work

MMP-9 (HNG; human neutrophil gelatinase), sequence (P14780 94-707): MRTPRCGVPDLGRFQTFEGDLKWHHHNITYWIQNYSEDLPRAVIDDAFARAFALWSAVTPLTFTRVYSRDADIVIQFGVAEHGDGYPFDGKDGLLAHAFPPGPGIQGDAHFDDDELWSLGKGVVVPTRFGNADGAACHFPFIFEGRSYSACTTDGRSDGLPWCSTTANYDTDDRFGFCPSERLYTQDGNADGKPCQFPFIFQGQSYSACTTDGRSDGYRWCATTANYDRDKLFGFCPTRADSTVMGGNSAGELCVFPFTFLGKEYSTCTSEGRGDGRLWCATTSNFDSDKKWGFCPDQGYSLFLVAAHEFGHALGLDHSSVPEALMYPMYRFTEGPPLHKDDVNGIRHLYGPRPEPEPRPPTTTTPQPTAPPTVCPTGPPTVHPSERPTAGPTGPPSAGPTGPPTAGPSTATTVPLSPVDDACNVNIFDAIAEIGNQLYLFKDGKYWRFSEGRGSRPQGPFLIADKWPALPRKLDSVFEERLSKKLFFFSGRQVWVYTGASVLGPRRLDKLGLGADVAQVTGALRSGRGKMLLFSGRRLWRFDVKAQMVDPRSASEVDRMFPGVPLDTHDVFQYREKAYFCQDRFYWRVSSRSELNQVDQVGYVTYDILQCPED
MMP-3 (HFS; human fibroblast stromelysin-1), sequence (P08254 100-477): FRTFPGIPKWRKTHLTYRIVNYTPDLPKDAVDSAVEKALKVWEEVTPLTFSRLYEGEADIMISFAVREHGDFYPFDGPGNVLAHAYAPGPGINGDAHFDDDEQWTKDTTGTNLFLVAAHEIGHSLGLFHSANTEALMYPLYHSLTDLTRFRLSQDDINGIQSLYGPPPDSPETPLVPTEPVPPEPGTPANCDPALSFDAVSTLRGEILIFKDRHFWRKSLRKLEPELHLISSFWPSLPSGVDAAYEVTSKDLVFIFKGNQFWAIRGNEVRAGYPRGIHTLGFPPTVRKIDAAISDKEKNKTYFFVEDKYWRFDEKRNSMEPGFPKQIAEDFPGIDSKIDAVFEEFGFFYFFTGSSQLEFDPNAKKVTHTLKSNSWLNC

Structure (SMILES)	IC50 [2] [µM]	Ki [3] [µM]	Ki [4] [µM]	Ki [5] [µM]	further results
C=CC[C@H](C(=O)NO)[C@@H](CC(C)C)C(=O)N[C@@H](Cc1ccccc1)C(=O)NC [BB-1101]					early phases of blood-brain barrier leakage (blood-brain barrier): reduces; EAN symptoms, inflammation, demyelination, weight loss (EAN animal model; given from the initiation of EAN): prevented the development of symptoms and reduced inflammation, demyelination, and weight loss; EAN disease severity (EAN animal model; given from the onset of symptoms): significantly reduced disease severity; secondary brain edema (brain): reduces; inflammatory response and damage (kidneys): significantly reduced; retinal damage [1]: shown to reduce retinal damage
O=S(=O)(N[C@H]1CNC[C@@H]1S)c1ccc(Oc2ccccc2)cc1 [Example 10, (3S,4S)-3-(4-Phenoxybenzenesulfonamido)-4-mercaptopyrrolidine Hydrochloride]	50	0.21	5.9	0.038	
O=S(=O)(N[C@@H]1CNC[C@H]1S)c1ccc(Oc2ccccc2)cc1 [Example 11, (3R,4R)-3-(4-Phenoxybenzenesulfonamido)-4-mercaptopyrrolidine Hydrochloride]	6.3	0.23	1.6	0.049	
NC(=O)N1C[C@H](NS(=O)(=O)c2ccc(Oc3ccccc3)cc2)[C@@H](S)C1 [Example 12, (3S,4S)—N-Carbamoyl-3-(4-phenoxybenzene-sulfonamido)-4-mercaptopyrrolidine]		0.013	1.7	0.01	
O=C(OCc1ccccc1)N1C[C@H](S)[C@H](NS(=O)(=O)c2ccc(Oc3ccccc3)cc2)C1 [Example 13, (3R,4S)—N-Cbz-3-(4-Phenoxybenzenesulfonamido)-4-mercaptopyrrolidine]	~125	3.1	5.4	1.8	
O=C(OCc1ccccc1)N1C[C@@H](S)[C@@H](NS(=O)(=O)c2ccc(Oc3ccccc3)cc2)C1 [Example 14, (3S,4R)—N-Cbz-3-(4-Phenoxybenzenesulfonamido)-4-mercaptopyrrolidine]	> 3	2.2	3.4	0.8	
CNC(=O)[C@H](Cc1c[nH]c2ccccc12)NC(=O)[C@@H](CC(=O)NO)CC(C)C [GM6001]					intimal hyperplasia and collagen content (stented arteries): significantly inhibited; lumen area (stented arteries): increasing the lumen area; rates of proliferation (stented arteries): without affecting the rates of proliferation; clinical signs of EAE (EAE animal model): suppressed the development or reversed clinical signs of EAE in a dose-dependent way
CNC(=O)[C@@H](NC(=O)[C@H](CC(C)C)[C@H](C)C(=O)NO)c1ccccc1 [KB-R7785]					plasma glucose and insulin levels (insulin resistance): significant decrease; mortality (lethal acute GVHD): reduced mortality
